{"source": "patent US20210386985A1", "about": "“BIODEGRADABLE MICRONEEDLES FOR TRANSDERMAL THERAPEUTIC AGENT DELIVERY” (THE REGENTS OF THE UNIVERSITY OF CALIFORNIA, priority 2018, published 2021)", "test_system": "melanoma cell line A375", "test": "In vitro anticancer efficacy of the released DOX (MTT and Live/Dead assay)", "format": "cell-based, human", "conditions": "A375 cells, microneedles incubated 1 h", "experimental": "A human melanoma cell line A375 was used as the model to investigate the anticancer efficiency of DOX released from the microneedles 14. After incubating microneedles 14 containing 10 μg of DOX with the plated cells for 1 h, the viability of A375 cells was examined using an MTT assay after 24 h. […] The DOX-induced cell death was further investigated by a Live/Dead assay, where live cells metabolized calcein AM into the green fluorescent calcein, and dead cells with compromised membrane integrity were stained by the red fluorescent dye EthD-1. […] The possible reason was that microneedles 14 with more crosslinking time would release less DOX at the same releasing time (1 h).\nIn vitro anticancer efficacy of the released DOX: In vitro cytotoxicity of the released DOX was evaluated using the melanoma cell line A375 as the model. Specifically, A375 cells were plated in 24-well plates (1×10^6 per well) and incubated for 24 h. Microneedles 14 with different crosslinking degrees were added and incubated for 1 h. After that, the microneedles 14 were removed from the wells, and A375 cells were incubated for another 24 h. The effects of DOX on the metabolic activity of A375 cells in vitro were tested with a rapid colorimetric MTT assay. The absorbance of the wells was read at 570 nm with 630 nm as the reference. […]", "data": [{"compound": "COc1cccc2c1C(=O)c1c(O)c3c(c(O)c1C2=O)C[C@@](O)(C(=O)CO)C[C@@H]3O[C@H]1C[C@H](N)[C@H](O)[C@H](C)O1", "note": "[DOX, doxorubicin]", "values": [{"measurement": "cell death (Live/Dead assay)", "value": "cell death was observed"}]}]}
